Patent US20090274739A1, “METHODS AND COMPOSITIONS FOR TREATING NEOINTIMAL HYPERPLASIA” (THE TRUSTEES OF COLUMBIA UNIVERSITY IN THE CITY OF NEW YORK, priority 2006, published 2009)

System: Akt phosphorylation
Assay: Immunoblot of Akt phosphorylation in VSMC
Format: cell-based, mouse
Description: Western blot analysis: The cells were plated in a 100-mm culture dish in DMEM supplemented with 20% FBS for 24 h at 37° C., followed by serum starvation for 48 h. Cells were then treated with different reagents for 30 min. Cells were subsequently lysed on ice for 30 min in RIPA buffer [150 mM NaCl, 100 mM Tris (pH 8.0), 1% Triton X-100, 1% deoxycholic acid, 0.1% SDS, 5 mM EDTA, and 10 mM NaF] supplemented with 1 mM sodium vanadate, 2 mM leupeptin, 2 mM aprotinin, 1 mM phenylmethylsulfonyl fluoride (PMSF), 1 mM DTT, and 2 mM pepstatin A. After centrifugation at 14,000 rpm for 30 min, the supernatant was harvested as the total cellular protein extract, and stored at −70° C. The protein concentration was determined using Bio-Rad protein assay reagent (Richmond, Calif.). The total cellular protein extracts were separated by SDS-polyacrylamide gel electrophoresis (SDS-PAGE) and transferred to nitrocellulose membrane in 20 mM Tris-HCl (pH 8.0) containing 150 mM glycine and 20% (v/v) methanol.
Membranes were blocked with 5% nonfat dried milk in PBS containing 0.05% Tween 20 and incubated with antibodies against phospho-(Thr^202/Tyr^204) p42/p44^MAPK and p42/p44^MAPK, phospho-Akt([…]) and anti-Akt, p70^S6K, 4EBP-1. Blots were washed three times in PBS buffer, followed by incubation with the appropriate HRP-linked IgG. The specific proteins in the blots were visualized using an enhanced chemiluminescence reagent (NEN, Boston, Mass.).
VSMC were plated on 100-mm dishes, serum starved for 72 h in DMEM containing 0.1% FBS, and stimulated with 0.6 or 6 nM (10 or 100 ng/ml) leptin. Extracts were prepared by brief sonication in HKM buffer [40 mM HEPES-KOH (pH 7.6), 7.5 mM MgCl2, 0.5 mM DTT] or, in the case of Akt phosphorylation studies, by lysing cells on ice for 30 min in RIPA buffer. 70 μg of protein per sample were subjected to immunoblotting by standards protocols. Imaging and densitometry were performed on an Odyssey infrared system (Li-Cor, Lincoln, Neb.).

Substance: Leptin: recombinant leptin; hormone derived from adipose tissue, encoded by the Ob gene
- phosphorylation of Akt (on serine 473) (Example 1, leptin 10 ng/mL): stimulated the phosphorylation
- time of maximum Akt phosphorylation (Example 2, leptin 100 ng/ml, decreasing thereafter at 45 min): 10 min
- Thr-308 phosphorylation of Akt (Example 5, leptin 6 nM): stimulated
- phosphorylation of Ser-473 of Akt (Example 5, leptin 6 nM): stimulated the phosphorylation
